From patent publication US8669249B2, “Poly (ADP-ribose) polymerase (PARP) inhibitors” (Takeda Pharmaceutical Company Limited, priority 2009, dated 2014)

Tests used:
PARP = target: T1, PARP (Homo sapiens, UniProt P09874); assay: PARP ELISA (ELISA-based colorimetric PARP/Apoptosis Assay kit, Trevigen); format: biochemical; conditions: pIC50=-log10 IC50, IC50 in mol/L; inhibition of PARP catalytic activity
T1 construct: purchased Trevigen 4684-096-K HT (kit); 4684-096-01 (PARP enzyme)
How it was run: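 Quenched after 10 min catalysis by aspiration and four PBS/0.1% Triton X-100 washes. Poly(ADP-ribose) detected with mouse anti-PAR monoclonal antibody, goat anti-mouse IgG-HRP and HRP substrate; colorimetric signal proportional to PARP catalytic activity.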

[1] = target: T2, catalytic domain of Human PARP (Homo sapiens, UniProt P09874); assay: Biacore surface plasmon resonance affinity assay; format: binding; conditions: pKD=-log10 KD, KD in mol/L; Biacore T100, 25° C.; read-out: pKD (converted)
T2 construct: The catalytic domain of Human PARP was cloned and prepared; made in house
T2 sequence (P09874 788-1014 limits assumed): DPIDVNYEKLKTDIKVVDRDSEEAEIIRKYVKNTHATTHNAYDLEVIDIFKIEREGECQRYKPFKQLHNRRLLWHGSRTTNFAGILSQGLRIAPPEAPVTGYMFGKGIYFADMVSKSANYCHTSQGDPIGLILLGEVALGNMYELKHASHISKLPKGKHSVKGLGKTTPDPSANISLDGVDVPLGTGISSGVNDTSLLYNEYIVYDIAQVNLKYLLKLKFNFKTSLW
How it was run: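 Human PARP catalytic domain amine-coupled to CM5 chip; compounds run as 2-fold series in HBS-P with 1% DMSO, 0.5 mM TCEP, 5 mM MgCl2.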

Jurkat cell line = assay: PARP cellular chemopotentiation assay (MTS, with/without TMZ); format: cell-based; conditions: Chemopotentiation factor: ratio of EC50 values of Jurkat cells co-treated without and with 100 μM TMZ; 96 hours
How it was run: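 Jurkat cells, 10,000/well, pre-cultured 24 h, then treated 96 h with serial compound dilutions (0.5% DMSO) with or without 100 μM TMZ. Viability by MTS conversion (OD490), normalized to DMSO controls; EC50 from curve fits, PF50 = EC50 without TMZ / EC50 with TMZ.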

T1 sequence (P09874 whole entry): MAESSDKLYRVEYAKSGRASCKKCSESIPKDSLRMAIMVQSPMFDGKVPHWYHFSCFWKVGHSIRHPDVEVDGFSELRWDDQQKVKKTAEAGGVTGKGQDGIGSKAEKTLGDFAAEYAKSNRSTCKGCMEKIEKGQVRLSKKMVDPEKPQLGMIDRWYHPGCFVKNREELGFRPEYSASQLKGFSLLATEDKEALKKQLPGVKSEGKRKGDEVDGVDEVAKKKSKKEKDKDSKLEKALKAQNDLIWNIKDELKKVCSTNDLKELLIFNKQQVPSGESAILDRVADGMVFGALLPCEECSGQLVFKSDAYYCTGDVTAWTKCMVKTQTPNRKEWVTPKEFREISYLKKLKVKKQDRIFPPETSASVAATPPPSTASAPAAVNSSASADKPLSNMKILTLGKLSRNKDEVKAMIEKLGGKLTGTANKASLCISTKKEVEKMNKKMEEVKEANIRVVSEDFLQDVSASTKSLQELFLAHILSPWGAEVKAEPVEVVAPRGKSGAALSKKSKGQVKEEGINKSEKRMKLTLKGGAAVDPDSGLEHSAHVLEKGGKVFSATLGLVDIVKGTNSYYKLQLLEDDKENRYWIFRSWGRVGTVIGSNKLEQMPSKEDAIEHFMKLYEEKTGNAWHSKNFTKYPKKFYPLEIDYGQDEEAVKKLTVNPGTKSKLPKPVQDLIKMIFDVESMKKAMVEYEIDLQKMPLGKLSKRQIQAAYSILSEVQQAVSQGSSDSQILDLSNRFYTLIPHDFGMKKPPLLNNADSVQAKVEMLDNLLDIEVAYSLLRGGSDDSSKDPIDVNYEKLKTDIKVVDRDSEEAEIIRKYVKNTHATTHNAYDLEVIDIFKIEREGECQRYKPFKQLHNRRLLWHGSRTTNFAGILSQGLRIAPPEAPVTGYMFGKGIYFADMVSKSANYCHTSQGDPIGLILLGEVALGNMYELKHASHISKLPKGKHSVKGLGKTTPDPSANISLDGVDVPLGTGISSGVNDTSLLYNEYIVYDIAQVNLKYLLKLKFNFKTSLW

Row | SMILES | IC50 (PARP) | Kd [1] | PF50 (Jurkat cell line)
1 | CNC(=O)c1ccc(N2CCN(Cc3cc(C)c4c(c3)NC(=O)C(C)O4)CC2)c(Cl)c1 (stereo not shown) [Compound 383, 3-Chloro-4-(4-((2,8-dimethyl-3-oxo-3,4-dihydro-2H-benzo[b][1,4]oxazin-6-yl)methyl)piperazin-1-yl)-N-methylbenzamide] | 50.1 nM |  | 3.2
2 | CNC(=O)c1ccc(N2CCN(Cc3cc4c(cc3F)OC(C)C(=O)N4)CC2)cc1 (stereo not shown) [Compound 335, 4-(4-((7-Fluoro-2-methyl-3-oxo-3,4-dihydro-2H-benzo[b][1,4]oxazin-6-yl)methyl)piperazin-1-yl)-N-methylbenzamide] | 63.1 nM |  | 0.3
3 | CNC(=O)c1ccc(N2CCN(Cc3cc(C)c4c(c3)NC(=O)C(C)O4)CC2)c(C)c1 (stereo not shown) [Compound 384, 4-(4-((2,8-Dimethyl-3-oxo-3,4-dihydro-2H-benzo[b][1,4]oxazin-6-yl)methyl)piperazin-1-yl)-N,3-dimethylbenzamide] | 39.8 nM |  | 8.4
4 | CC1Oc2cc(F)c(CN3CCN(c4ccc(C#N)cn4)CC3)cc2NC1=O (stereo not shown) [Compound 340, 6-(4-((7-Fluoro-2-methyl-3-oxo-3,4-dihydro-2H-benzo[b][1,4]oxazin-6-yl)methyl)piperazin-1-yl)nicotinonitrile] | 63.1 nM |  | 0.9
5 | CCOc1cc(CN2CCN(c3ccc(C(=O)NC)cc3C)CC2)cc2c1OC(C)C(=O)N2 (stereo not shown) [Compound 400, 4-(4-((8-Ethoxy-2-methyl-3-oxo-3,4-dihydro-2H-benzo[b][1,4]oxazin-6-yl)methyl)piperazin-1-yl)-N,3-dimethylbenzamide] | 31.6 nM |  | 1211
6 | Cc1cc2c(cc1CN1CC=C(c3ccc(Cl)cc3)CC1)NC(=O)C(C)O2 (stereo not shown) [Compound 321, 6-((4-(4-Chlorophenyl)-5,6-dihydropyridin-1(2H)-yl)methyl)-2,7-dimethyl-2H-benzo[b][1,4]oxazin-3(4H)-one] | 2 nM |  | 1.4
7 | CCNC(=O)c1ccc(N2CCN(Cc3cc4c(c(OC)c3)OC(C)C(=O)N4)CC2)c(Cl)c1 (stereo not shown) [Compound 361, 3-Chloro-N-ethyl-4-(4-((8-methoxy-2-methyl-3-oxo-3,4-dihydro-2H-benzo[b][1,4]oxazin-6-yl)methyl)piperazin-1-yl)benzamide] | 25.1 nM |  | >3500
8 | CCNC(=O)c1ccc(N2CCN(Cc3cc4c(c(OC)c3)OC(C)C(=O)N4)CC2)c(C)c1 (stereo not shown) [Compound 363, N-ethyl-4-(4-((8-methoxy-2-methyl-3-oxo-3,4-dihydro-2H-benzo[b][1,4]oxazin-6-yl)methyl)piperazin-1-yl)-3-methylbenzamide] | 31.6 nM |  | 6522
9 | CCNC(=O)c1ccc(N2CCN(Cc3cc4c(c(OC(F)F)c3)OC(C)C(=O)N4)CC2)cc1 (stereo not shown) [Compound 404, 4-(4-((8-(Difluoromethoxy)-2-methyl-3-oxo-3,4-dihydro-2H-benzo[b][1,4]oxazin-6-yl)methyl)piperazin-1-yl)-N-ethylbenzamide] | 31.6 nM |  | >2.0
10 | CC1Oc2ccc(CN3CCN(c4ccc(C(=O)N5CCCC5)cc4)CC3)cc2NC1=O (stereo not shown) [Compound 377, 2-Methyl-6-((4-(4-(pyrrolidine-1-carbonyl)phenyl)piperazin-1-yl)methyl)-2H-benzo[b][1,4]oxazin-3(4H)-one] | > 200 nM |  | 1.0
11 | CNC(=O)c1ccc(N2CCN(Cc3cc(C)c4c(c3)NC(=O)C(C)O4)CC2)c(F)c1 (stereo not shown) [Compound 380, 4-(4-((2,8-Dimethyl-3-oxo-3,4-dihydro-2H-benzo[b][1,4]oxazin-6-yl)methyl)piperazin-1-yl)-3-fluoro-N-methylbenzamide] | 50.1 nM |  | 4.0
12 | CCNC(=O)c1ccc(N2CCN(Cc3cc4c(c(OCC)c3)OC(C)C(=O)N4)CC2)c(C)c1 (stereo not shown) [Compound 401, 4-(4-((8-Ethoxy-2-methyl-3-oxo-3,4-dihydro-2H-benzo[b][1,4]oxazin-6-yl)methyl)piperazin-1-yl)-N-ethyl-3-methylbenzamide] | 50.1 nM |  | >5000
13 | CNC(=O)c1ccc(N2CCN(Cc3cc4c(c(OC)c3)OC(C)C(=O)N4)CC2)c(F)c1 (stereo not shown) [Compound 365, 3-Fluoro-4-(4-((8-methoxy-2-methyl-3-oxo-3,4-dihydro-2H-benzo[b][1,4]oxazin-6-yl)methyl)piperazin-1-yl)-N-methylbenzamide] | 31.6 nM |  | 1.3
14 | CCNC(=O)c1ccc(N2CCN(Cc3cc4c(c(OC)c3)OCC(=O)N4)CC2)c(Cl)c1 [Compound 370, 3-Chloro-N-ethyl-4-(4-((8-methoxy-3-oxo-3,4-dihydro-2H-benzo[b][1,4]oxazin-6-yl)methyl)piperazin-1-yl)benzamide] | 79.4 nM |  | 5.0
15 | CCOc1cc(CN2CCN(c3ccc(C(=O)NC)cc3)CC2)cc2c1OC(C)C(=O)N2 (stereo not shown) [Compound 398, 4-(4-((8-Ethoxy-2-methyl-3-oxo-3,4-dihydro-2H-benzo[b][1,4]oxazin-6-yl)methyl)piperazin-1-yl)-N-methylbenzamide] | 79.4 nM |  | >2.0
16 | CCNC(=O)c1ccc(N2CCN(Cc3cc4c(c(OCC)c3)OC(C)C(=O)N4)CC2)c(Cl)c1 (stereo not shown) [Compound 399, 3-Chloro-4-(4-((8-ethoxy-2-methyl-3-oxo-3,4-dihydro-2H-benzo[b][1,4]oxazin-6-yl)methyl)piperazin-1-yl)-N-ethylbenzamide] | 63.1 nM |  | >4.0
17 | CCNC(=O)c1ccc(N2CCN(Cc3ccc4c(c3)NC(=O)[C@H](C)O4)CC2)cc1 [Compound 249, (S)-N-Ethyl-4-(4-((2-methyl-3-oxo-3,4-dihydro-2H-benzo[b][1,4]oxazin-6-yl)methyl)piperazin-1-yl)benzamide] | ≤ 31.6 nM |  | 1.0-1.9
18 | CNC(=O)c1ccc(N2CCN(Cc3cc4c(c(OC(F)F)c3)OC(C)C(=O)N4)CC2)cc1 (stereo not shown) [Compound 403, 4-(4-((8-(Difluoromethoxy)-2-methyl-3-oxo-3,4-dihydro-2H-benzo[b][1,4]oxazin-6-yl)methyl)piperazin-1-yl)-N-methylbenzamide] | 63.1 nM |  | >2.0

Continued, in another order:

Row | IC50 (PARP) | Kd [1] | SMILES | PF50 (Jurkat cell line)
19 | ≤ 31.6 nM | < 31.6 nM | CNC(=O)c1ccc(N2CCN(Cc3cc4c(c(OC)c3)OC(C)C(=O)N4)CC2)cc1 (stereo not shown) [Compound 161, 4-(4-((8-Methoxy-2-methyl-3-oxo-3,4-dihydro-2H-benzo[b][1,4]oxazin-6-yl)methyl)piperazin-1-yl)-N-methylbenzamide] | ≧10.0
20 | 79.4 nM |  | CC1Oc2cc(F)c(CN3CCN(c4ccc(C(=O)NC5CC5)cc4)CC3)cc2NC1=O (stereo not shown) [Compound 338, N-Cyclopropyl-4-(4-((7-fluoro-2-methyl-3-oxo-3,4-dihydro-2H-benzo[b][1,4]oxazin-6-yl)methyl)piperazin-1-yl)benzamide] | 0.4
21 | 20 nM |  | COc1cc(CN2CCN(c3ccc(C(=O)NC4CC4)cc3Cl)CC2)cc2c1OC(C)C(=O)N2 (stereo not shown) [Compound 373, 3-Chloro-N-cyclopropyl-4-(4-((8-methoxy-2-methyl-3-oxo-3,4-dihydro-2H-benzo[b][1,4]oxazin-6-yl)methyl)piperazin-1-yl)benzamide] | 3.2
22 | 79.4 nM |  | Cc1cc(CN2CCN(c3ccc(C(=O)NC4CC4)cc3Cl)CC2)cc2c1OC(C)C(=O)N2 (stereo not shown) [Compound 388, 3-Chloro-N-cyclopropyl-4-(4-((2,8-dimethyl-3-oxo-3,4-dihydro-2H-benzo[b][1,4]oxazin-6-yl)methyl)piperazin-1-yl)benzamide] | 6558
23 | > 200 nM |  | CC1Oc2c(Cc3ccccc3)cc(CN3CCN(c4ccc(C(=O)NC5CC5)cc4)CC3)cc2NC1=O (stereo not shown) [Compound 354, 4-(4-((8-Benzyl-2-methyl-3-oxo-3,4-dihydro-2H-benzo[b][1,4]oxazin-6-yl)methyl)piperazin-1-yl)-N-cyclopropylbenzamide] | 1.0
24 | 15.8 nM |  | CCNC(=O)c1ccc(N2CCN(Cc3cc(O)c4c(c3)NC(=O)C(C)O4)CC2)cc1 (stereo not shown) [Compound 359, N-Ethyl-4-(4-((8-hydroxy-2-methyl-3-oxo-3,4-dihydro-2H-benzo[b][1,4]oxazin-6-yl)methyl)piperazin-1-yl)benzamide] | >6.0
25 | > 200 nM |  | CNC(=O)c1ccc(N2CCN(Cc3cc4c(c(-c5ccccc5)c3)OC(C)C(=O)N4)CC2)cc1 (stereo not shown) [Compound 350, N-Methyl-4-(4-((2-methyl-3-oxo-8-phenyl-3,4-dihydro-2H-benzo[b][1,4]oxazin-6-yl)methyl)piperazin-1-yl)benzamide] | 2.1
26 | > 200 nM |  | CCNC(=O)c1ccc(N2CCN(Cc3cc(Cc4ccccc4)c4c(c3)NC(=O)C(C)O4)CC2)cc1 (stereo not shown) [Compound 355, 4-(4-((8-Benzyl-2-methyl-3-oxo-3,4-dihydro-2H-benzo[b][1,4]oxazin-6-yl)methyl)piperazin-1-yl)-N-ethylbenzamide] | 1.3
27 | > 200 nM |  | CC1Oc2c(cc(CN3CCN(c4ccc(C(=O)NC5CC5)cc4)CC3)cc2-c2ccccc2)NC1=O (stereo not shown) [Compound 351, N-Cyclopropyl-4-(4-((2-methyl-3-oxo-8-phenyl-3,4-dihydro-2H-benzo[b][1,4]oxazin-6-yl)methyl)piperazin-1-yl)benzamide] | 1.0
